Results as given in article PMC12881670, “Investigation into ligand selectivity and bias at the formyl peptide receptor family” (The Journal of Pharmacology and Experimental Therapeutics, 2025).
Where two headings read alike, the source gives them in different places. Where a SMILES comes first, the peptide text is derived from it. Where no end group is shown, it is not given here. [ ]: non-standard residue; d: D form. The star is where a group is joined. For = O=C*

B1: WKYMVm (peptide)
peptide: WKYMV[dM]
notes: the last residue is the D form; the bought peptide is probably also an amide (surmise); source: bought: Tocris

Assays:
[1] = tested on: FPR2; details: read-out: EC50 arrestin recruitment, Pathhunter, cited from earlier work
[2] = target: T1, Mm_Fpr2 (Mus musculus, UniProt O88536); experiment: BRET receptor-RLuc8 interaction with Venus-mGsi; assay type: cell-based; details: for Log EC50 (M): log of EC50, HEK293 transient, 10 min; for Log EC50 (M) / Emax (%): mGsi BRET, mean, ND = no interaction detected; for Emax (%): % of response to 1 μM WKYMVm
T1 construct: expressed in transfected cells
T1 sequence (O88536 1-351): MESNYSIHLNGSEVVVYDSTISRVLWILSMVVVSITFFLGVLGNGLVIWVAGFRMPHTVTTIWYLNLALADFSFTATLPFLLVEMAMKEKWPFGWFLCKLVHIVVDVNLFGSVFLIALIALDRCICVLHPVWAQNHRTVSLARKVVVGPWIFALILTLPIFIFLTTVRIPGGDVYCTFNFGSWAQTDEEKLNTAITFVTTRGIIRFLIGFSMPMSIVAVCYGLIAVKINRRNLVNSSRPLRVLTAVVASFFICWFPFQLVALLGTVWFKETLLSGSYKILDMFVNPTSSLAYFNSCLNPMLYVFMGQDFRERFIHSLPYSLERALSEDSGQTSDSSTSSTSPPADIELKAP
How it was run: (§1)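 Receptor-RLuc8 and acceptor plasmids (Venus-mGsi or YFP-Arrestin 3, 1:4) are transfected; cells are replated after 24 h and grown 24–48 h more. Wells are equilibrated 30 min in HBSS, given coelenterazine h (5 μM final), dosed with compound 5 min later and held 10 min at 37 °C before the BRET read.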

[3] = target: T2, Hs_FPR1 (Homo sapiens, UniProt P21462); experiment: BRET receptor-RLuc8 interaction with Venus-mGsi; assay type: cell-based; details: for Log EC50 (M): log of EC50, HEK293 transient, 10 min; for Log EC50 (M) / Emax (%): mGsi BRET, mean, ND = no interaction detected; for Emax (%): % of response to 1 μM WKYMVm
T2 construct: expressed in transfected cells
T2 sequence (P21462 1-350): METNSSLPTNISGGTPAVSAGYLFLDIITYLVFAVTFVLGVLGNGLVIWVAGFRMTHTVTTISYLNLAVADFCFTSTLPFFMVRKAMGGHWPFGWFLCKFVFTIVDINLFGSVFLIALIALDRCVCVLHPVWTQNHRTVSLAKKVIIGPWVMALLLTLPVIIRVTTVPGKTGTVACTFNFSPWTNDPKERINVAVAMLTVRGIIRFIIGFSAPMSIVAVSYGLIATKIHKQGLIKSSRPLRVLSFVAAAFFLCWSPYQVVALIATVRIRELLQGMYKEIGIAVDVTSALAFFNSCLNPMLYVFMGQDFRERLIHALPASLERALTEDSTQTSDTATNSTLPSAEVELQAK
How it was run: as §1

[4] = target: T3, Mm_Fpr1 (Mus musculus, UniProt P33766); experiment: BRET receptor-RLuc8 interaction with Venus-mGsi; assay type: cell-based; details: for Log EC50 (M): log of EC50, HEK293 transient, 10 min; for Log EC50 (M) / Emax (%): mGsi BRET, mean, ND = no interaction detected; for Emax (%): % of response to 1 μM WKYMVm
T3 construct: expressed in transfected cells
T3 sequence (P33766 1-364): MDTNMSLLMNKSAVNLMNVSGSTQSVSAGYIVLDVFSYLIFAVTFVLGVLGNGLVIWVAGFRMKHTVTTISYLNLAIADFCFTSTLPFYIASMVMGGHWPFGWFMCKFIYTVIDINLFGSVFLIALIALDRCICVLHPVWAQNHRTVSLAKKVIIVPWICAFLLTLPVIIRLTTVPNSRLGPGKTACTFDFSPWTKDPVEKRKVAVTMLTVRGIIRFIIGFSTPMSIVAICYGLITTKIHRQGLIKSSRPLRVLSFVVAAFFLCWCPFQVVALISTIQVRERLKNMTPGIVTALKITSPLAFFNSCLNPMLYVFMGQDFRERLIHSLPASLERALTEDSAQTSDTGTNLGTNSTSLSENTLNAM
How it was run: as §1

[5] = target: T3, Mm_Fpr1; experiment: ERK1/2 phosphorylation by Western blotting; assay type: cell-based; parameters: Emax: dose or concentration left out as unconfirmed; details: for Log EC50 (M) / EC50: log of EC50, phosphorylation of ERK1/2, HEK293 stable cells; for Log EC50 (M) / Emax (%) / EC50: mean, ND = no pERK signal detected; for Emax (%): phospho-ERK, % of 1 μM WKYMVm
[6] = target: T1, Mm_Fpr2; experiment: BRET receptor-RLuc8 interaction with Arrestin 3-YFP; assay type: cell-based; details: for Emax (%) / Log EC50 (M): Arrestin 3 BRET, mean, ND = no interaction detected; for Emax (%): % of response to 1 μM WKYMVm; for Log EC50 (M): log of EC50, HEK293 transient, 10 min
How it was run: as §1

[7] = target: T2, Hs_FPR1; experiment: as above; assay type: cell-based; details: for Emax (%) / Log EC50 (M): Arrestin 3 BRET, mean, ND = no interaction detected; for Emax (%): % of response to 1 μM WKYMVm; for Log EC50 (M): log of EC50, HEK293 transient, 10 min
How it was run: as §1

[8] = target: T3, Mm_Fpr1; experiment: as above; assay type: cell-based; details: for Emax (%) / Log EC50 (M): Arrestin 3 BRET, mean, ND = no interaction detected; for Emax (%): % of response to 1 μM WKYMVm; for Log EC50 (M): log of EC50, HEK293 transient, 10 min
How it was run: as §1

[9] = target: T4, FLAG-Hs_FPR2 C-terminally fused to Renilla Luciferase 8 (human, UniProt P25090 1-351); experiment: cell-based or functional assay
T4 sequence (looked up): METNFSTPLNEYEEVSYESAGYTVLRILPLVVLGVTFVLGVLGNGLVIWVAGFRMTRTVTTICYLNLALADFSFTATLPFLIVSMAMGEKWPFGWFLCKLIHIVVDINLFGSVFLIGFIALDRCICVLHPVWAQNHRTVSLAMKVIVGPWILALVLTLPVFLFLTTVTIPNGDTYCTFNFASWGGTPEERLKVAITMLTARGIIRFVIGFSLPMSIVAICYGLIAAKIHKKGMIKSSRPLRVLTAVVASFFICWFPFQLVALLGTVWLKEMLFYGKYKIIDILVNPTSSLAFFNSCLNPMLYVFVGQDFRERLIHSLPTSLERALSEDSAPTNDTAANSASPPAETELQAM

[10] = target: T5, FLAG-Hs_FPR1 C-terminally fused to Renilla Luciferase 8 (human, UniProt P21462 1-350); experiment: cell-based or functional assay
T5 sequence (looked up): T2 sequence (P21462 1-350)

[11] = target: T6, FLAG-Mm_Fpr1 C-terminally fused to Renilla Luciferase 8 (mouse, UniProt P33766 1-364); experiment: cell-based or functional assay
T6 sequence (looked up): T3 sequence (P33766 1-364)

Molecule | Log EC50 (M) [2] [M] | Emax (%) [2] [%] | Log EC50 (M) [3] [M] | Emax (%) [3] [%] | Log EC50 (M) [4] [M] | Emax (%) [4] [%] | Log EC50 (M) [5] [M] | Emax (%) [5] [%] | Emax (%) [6] [%] | Log EC50 (M) [6] [M] | Emax (%) [7] [%] | Log EC50 (M) [7] [M] | Emax (%) [8] [%] | Emax [2] [%] | Emax [3] [%] | Emax [4] [%] | Emax [5] [%] | Emax [6] [%] | Emax [7] [%] | Emax [8] [%] | also measured
Cc1cccc(-c2oc(C)nc2C(=O)Nc2cnn(Cc3nc(C(C)(F)F)co3)n2)c1 [ACT-389949] | −7.57 | 116.06 | −6.47 | 60.56 | −5.74 | 49.76 | −6.383 | 99.504 | 95.34 | −7.66 | 86.48 | −6.00 | 52.62 | – | – | – | – | – | – | – | EC50 ([1]; FPR2): 20 nM; Log EC50 (M) [8]: −5.98 M
COc1cc(F)c([C@@H]2CNC(=O)[C@H]2NC(=O)Nc2ccccc2)c(F)c1 [BMS-986235] | – | – | – | – | – | – | – | – | – | – | – | – | – | 104 | 7.4 | 21.7 | 114 | 100 | 5.54 | 18.2 | EC50 ([1]; Hs_FPR2): 130 nM; EC50 [2]: 166 nM; EC50 [3]: 2240 nM; EC50 [4]: 1410 nM; EC50 [5]: 982 nM; EC50 [6]: 151 nM; EC50 [7]: 2290 nM; EC50 [8]: 6.76 nM; efficacy, % of WKYMVm ([8]; Mm_Fpr1, mGsi versus Arrestin3 bias comparison): < 20%
CCCCOc1ccc(C(=O)NN2C(=O)c3ccccc3NC2c2ccc(OC)cc2)cc1 (centres unmarked) [QuinC1] | −6.35 | 70.36 | −5.34 | 17.60 | −7.49 | 30.89 | −6.945 | 150.3 | 68.75 | −6.40 | 17.25 | −5.35 | 49.50 | – | – | – | – | – | – | – | Log EC50 (M) [8]: −6.33 M
CSCC[C@H](NC(=O)[C@H](Cc1ccc(O)cc1)NC(=O)[C@H](CCCCN)NC(=O)[C@@H](N)Cc1c[nH]c2ccccc12)C(=O)N[C@H](C(=O)N[C@H](CCSC)C(N)=O)C(C)C [WKYMVm] | – | – | – | – | – | – | – | – | – | – | – | – | – | 103 | 112 | 109 | 102 | 101 | 105 | 112 | –
CSCC[C@H](NC=O)C(=O)N[C@@H](CC(C)C)C(=O)N[C@@H](Cc1ccccc1)C(=O)N[C@@H](CCCCN)C(=O)O [fMLFK, fMet-Leu-Phe-Lys] (For-MLFK-OH) | – | – | – | – | – | – | – | – | – | – | – | – | – | 82.7 | 104 | 62.9 | 140 | 72.5 | 97.4 | 95.2 | EC50 [2]: 30200 nM; EC50 [3]: 85.1 nM; EC50 [4]: 9550 nM; EC50 [5]: 851 nM; EC50 [6]: 16200 nM; EC50 [7]: 35.5 nM; EC50 [8]: 7240 nM
B1 | – | – | – | – | – | – | – | – | – | – | – | – | – | – | – | – | – | – | – | – | BRET of receptor-RLuc8 with Venus-mGsi: Emax (% of 1 μM WKYMVm) [9]: 100%; BRET of receptor-RLuc8 with Venus-mGsi: Log EC50 (M) [9]: -8.11 log M; BRET of receptor-RLuc8 with Venus-mGsi: Emax (% of 1 μM WKYMVm) [10]: 112%; BRET of receptor-RLuc8 with Venus-mGsi: Emax (% of 1 μM WKYMVm) [11]: 109%; BRET of receptor-RLuc8 with Venus-mGsi: Log EC50 (M) [11]: -6.69 log M
